Entries after “also recorded” stand apart in the source; their conditions may differ. Like-named read-outs stand apart in the source and are kept apart here.
What was measured:
[1] = system: Dck, Uck2, Cda and Cad; assay: F1339 cells: pyrimidine metabolism enzyme expression by QRT-PCR and Western blot; format: cell-based, murine
Experimental: (§1) FIG. 2. […] F1339 p53-null cancer cells were seeded at D0 and treated with DMSO, deoxycytidine (DC, 0.5 μM), cytidine (CY, 5 μM), Dec (0.5 μM) and 5Aza (5 μM). […] Cell counts by automated counter, mean±SD. […] Gene expression by Q-PCR, median±interquartile range (IQR) (3 biological replicates), *p<0.05, **p<0.01. 2-sided Mann-Whitney test. […] Western blot.
RNA was extracted using Trizol reagent (Invitrogen) before the generation of complementary DNA using the iScript™ cDNA Synthesis Kit (Bio-rad). Quantitative PCR was run on StepOnePlus Real-Time PCR System (Applied Biosystems), using comparative Ct value method to quantify the expression of target genes in different samples. Gene expression was normalized to the housekeeping gene β-actin.
Tumor cells were lysed with RIPA lysis buffer and protein concentrations determined by BCA protein assay kit (Thermo Fisher Scientific). Samples with equal quantity (40 μg) of total protein were mixed with 4× loading buffer and 10× sample reducing reagent (Thermo Fisher Scientific), subjected to electrophoresis on a 12% (v/v) SDS-polyacrylamide gel, then transferred onto polyvinylidene fluoride membranes. After blocking with 5% dried skimmed milk, the membranes were washed three times and incubated with primary antibodies at 4° C. overnight. After washing, the membranes were further incubated with corresponding horseradish peroxidase-conjugated secondary antibodies. The membranes were then treated with Pierce™ ECL substrates (Thermo Scientific) then visualized using X-ray film.

[2] = system: DCK-knockout HAP1 leukemia cells; assay: Growth inhibition of DCK-knockout HAP1 leukemia cells; format: cell-based; settings: Homo sapiens
From the text: (§2) A) DCK and UCK2 knockout (KO) were confirmed by Western blot. HAP1 leukemia cells, KO by CRISPR-Cas9. B) DCK-KO lowers dCTP and UCK2-KO lowers dTTP. Analysis of independent nucleotide extractions. Means±SD; p-values unpaired t-test, 2-sided. C) Sensitivity of Wildtype, DCK-KO and UCK2-KO HAP1 leukemia cells to Dec vs 5Aza. Means±SD of 3 independent biological replicates.
(§3) Study approvals. Bone marrow samples for research were obtained from patients with AML (Acute myeloid leukemia) with written informed consent on a study protocol approved by the Cleveland Clinic Institutional Review Board (Cleveland, Ohio). Murine experiments were approved by the Cleveland Clinic Institutional Animal Care and Use Committee (Cleveland, Ohio). Sources of cell lines and animals. […] DNMT1 Immuno-detection and quantitation: Immunohistochemistry (IHC) was performed on decalcified and formalin-fixed paraffin embedded bone marrow biopsy sections (4 μm) and on positive and negative controls (parental and DNMT1-KO HCT116 cells). […] Nuclei positive for DNMT1 were identified and quantified in high resolution, large field-of-view images per ImageIQ algorithms (Image IQ Inc., Cleveland, OH) after segmentation of images and subtraction of bone as has been previously described^4.

[3] = system: AML cells (MOLM13, OCI-AML3, THP1); assay: AML cell proliferation after a single dose; format: cell-based; settings: decitabine, deoxycytidine 0.5 μM, 5-azacytidine, cytidine 5 μM
Experimental: (§4) A) Experiment schema. Vehicle, natural deoxycytidine (dC) 0.5 uM, natural cytidine (C) 5 uM, Dec 0.5 uM, or 5Aza 5 uM were added once to AML cells at 0 hours. B) Cell counts. By automated counter. Means±SD for 3 independent biological replicates for each cell line. C) Dec and 5Aza have opposite effects on dCTP levels. Measured by LCMS/MS 24 hrs after addition of Dec or 5Aza. Analyses of 2 or more independent nucleotide extractions from 3 different AML cells lines. Means±SD; p-values paired t-test, 1-sided. D) Gene expression 72 hours after Dec or 5Aza. Gene expression by QRT-PCR, relative to average expression in vehicle-treated controls. Means±SD for 3 independent biological replicates in each of 3 AML cell lines; p-values unpaired t-test vs vehicle, 2-sided. E) Western blot 72 hours after Dec or 5Aza. AML cells THP1, OCI-AML3 and K562. Western blots were reproduced in three independent biological replicates.

[4] = system: UCK2-knockout HAP1 leukemia cells; assay: Growth inhibition of UCK2-knockout HAP1 leukemia cells; format: cell-based; settings: Homo sapiens
From the text: as §2, §3

[5] = system: DCK; settings: leukemia cells, within 48 hours; cited from earlier work
[6] = system: dCTP, dTTP and pyrimidine metabolism enzymes; assay: AML cells: nucleotide levels (LCMS/MS) and enzyme expression (QRT-PCR, Western blot); format: cell-based
Experimental: as §4
C) Off-target pathways of Dec and 5Aza. D) Effects of Dec and 5Aza on RRM2A, RRM2B and CTPS1 protein levels. Western blots 72 hours after addition of a single dose of Dec 0.25 μM or 5Aza 2.5 uM. Western blots were reproduced in biological replicates.

[7] = system: parental HAP1 leukemia cells; assay: Growth inhibition of parental HAP1 leukemia cells; format: cell-based; settings: Homo sapiens
From the text: as §2, §3

[8] = system: DNMT1; assay: Serial patient bone marrow biopsies, DNMT1 immunohistochemistry; format: in vivo, human; settings: for decrease of DNMT1 protein at time-of-response compared to pre-treatment: 13 patients
From the text: (§5) Serial bone marrow biopsies from the same patient were cut onto the same slide, stained for DNMT1, and the number of DNMT1-positive nuclei was quantified objectively using ImageIQ software in 13 patients and positive/negative controls (tissue blocks of HCT116 wild-type and DNMT1-knockout cells respectively). D=days of therapy. Pre-Rx=pre-treatment; HI=hematologic improvement; CR=complete remission; SD=stable disease; Rel.=relapse. Mean±SD of ×3 image segments (cellular regions) per sample; p-value paired t-test, 2-sided. C) Expression of key pyrimidine metabolism enzymes at relapse/progression on Dec. […] Bone marrow cells aspirated pre-treatment and at relapse/progression on Dec (13 patients, median duration of therapy 175 days, range 97-922) or 5Aza (14 patients, median duration of therapy 433 days, range 61-1155) were analyzed by QRT-PCR. Mean±SD technical replicates×3. Paired t-test, 2-sided. D) Expression by Western blot of DNMT1 and key pyrimidine metabolism enzymes in Dec-resistant AML cells (THP1, K562, OCI-AML3 and MOLM13), and in parental THP1 AML cells treated with vehicle, Dec or 5-azacytidine (5Aza). Western blots.
as §3

[9] = system: LL3 lung cancer cells; assay: Syngeneic disseminated lung cancer model (LL3, tail vein); format: in vivo, C57BL/6 mice; settings: for increase of time-to-distress over vehicle: treatment from day 21, Dec 0.2, THU-Dec 10/0.1, 5Aza 2, THU-5Aza 10/1 mg/kg sc 3×/wk
From the text: (§6) 2-sided Mann-Whitney test.
as §6, §6

[10] = cited from earlier work
[11] = system: F1339 p53-null SCLC cells; assay: F1339 SCLC cells in vitro: proliferation, apoptosis, differentiation; format: cell-based, murine
Experimental: as §1

[12] = system: DCK, UCK2, CDA and CAD; assay: Patients' bone marrow enzyme expression pre-treatment vs relapse, QRT-PCR; format: in vivo, human; settings: MDS patients' bone marrow; for average increase of CAD expression at relapse: not in all patients
From the text: as §5
DNA isolation, reverse transcription (RT) and real-time PCR. As previously described^59. Primer sequences were:
CAD increased an average of ˜8-fold at relapse on either pro-drug, but not in all patients (FIG. 23C). The proliferation marker MKI67 increased at relapse in almost all the patients, consistent with active progression of disease (FIG. 23C).

[13] = system: patient-derived AML cells; assay: Patient-derived xenotransplant (PDX) model of chemorefractory AML; settings: for added benefit of ribonucleotide reductase inhibitor to THU+decitabine: dT 2 g/kg IP, hydroxyurea 100 mg/kg IP Day 1 before THU+decitabine days 2 and 3; for human CD45+ (hCD45+) AML cells in bone marrow: Day 45
From the text: NSG mice were tail-vein inoculated with patient-derived AML cells (1×10^6 cells/mouse) and randomized to (i) PBS vehicle control; (ii) CDA-inhibition by intra-peritoneal (IP) tetrahydrouridine (THU) and de novo pyrimidine synthesis inhibition by IP thymidine (dT); (iii) Dec; (iv) THU and Dec; (v) THU, Dec and dT (n=5/group). PBS, THU+dT mice were euthanized for distress on D42, and other mice were sacrificed for analysis on D63. […] C) Bone marrow human (hCD45) and murine (mCd45) myelopoiesis content. Flow-cytometry. Median±IQR. p-value Mann-Whitney test 2-sided. […] Median±IQR. p-value Mann-Whitney test 2-sided.
NSG mice were tail-vein inoculated with patient-derived AML cells (1×10^6 cells/mouse) and on Day 9 after inoculation randomized to the treatments as shown (n=7/group). Mice were euthanized if there were signs of distress. A) Experiment schema; B) Time-to-distress and euthanasia. C) Bone marrow human (hCD45) and murine (mCd45) myelopoiesis content. Femoral bones flushed after euthanasia. Measured by flow-cytometry. Median±IQR. D) Spleen weights at time-of-distress/euthanasia. Median±IQR. E) Spleens at the time-of-distress/euthanasia.
NSG mice were tail-vein inoculated with patient-derived AML cells (1×10^6 cells/mouse) and randomized to the treatments shown (n=5/group). Blood counts were obtained periodically by tail-vein phlebotomy. Mice were euthanized for signs of distress. A) Experiment schema; B) Time-to-distress. Log-rank test. […] D) Bone marrow replacement by AML. Bone marrow human and murine CD45+ cells measured by flow-cytometry (FIG. 32) after euthanasia (time-points panel B). Median±IQR. p-value Mann-Whitney test 2-sided. […] Flow cytometry (FIG. 33).
C) Percentage of human CD45+ (huCD45) positive cells in bone marrow. Flow cytometry. Median±IQR. p-value Mann-Whitney test 2-sided. 5 mice in each treatment group analyzed.
Mice were euthanized for signs of distress. A) Experiment schema; B) Time-to-distress. p-value Log-rank test. C) Bone marrow human leukemia cell burden at time-of-distress. Flow cytometry for human CD45+ cells. Median±IQR. p-value Mann-Whitney test 2-sided. […] E) Spleen weights at time-of-distress. Median±IQR. p-value Mann-Whitney test 2-sided.
NSG mice were tail-vein inoculated with patient-derived AML cells (1×10^6 cells/mouse) and on Day 5 after inoculation randomized to the treatments as shown (n=7/group). Mice were euthanized if there were signs of distress.

[14] = system: thoracic malignancies; settings: cited from earlier work
[15] = lung cancer cells, within 72-96 hours
[16] = HAP1, read-out: GI50 (concentration for 50% growth inhibition)
[17] = THU+dT day 42, other treatments day 63

With Nc1ncn([C@@H]2O[C@H](CO)[C@@H](O)[C@H]2O)c(=O)n1 [5-azacytidine] the “expression of Dck, Uck2, Cda and Cad” value ([1]; decitabine 0.5 μM, 5-azacytidine 5 μM) was “increased Dck, Cda and Cad expression several-fold”, the CAD upregulation ([1]; lung cancer cells) was about 2 fold and the DCK upregulation ([1]; lung cancer cells) was about 3 fold. The GI50 ([2]; HAP1, DCK-knockout cells, read-out: GI50 (concentration for 50% growth inhibition)) was 2 µM, the AML cell proliferation [3] was “significantly decreased AML cell proliferation” and the GI50 ([4]; HAP1, UCK2-knockout cells, read-out: GI50 (concentration for 50% growth inhibition)) was 15 µM. For the same compound, the DCK upregulation [5] was about 30%, the DNMT1 protein [6] was “depleted DNMT1” and the RRM1 protein [6] was “decreased levels of the ribonucleotide reductase sub-unit RRM1”. For the same compound, the TYMS protein [6] was “downregulated”, the dCTP amount ([6]; 24 hour time-point) was “significantly decreased” and the dTTP amount ([6]; 24 hour time-point) was “decreased by both pro-drugs, but not to statistical significance”. The “CDA mRNA and protein expression” value ([6]; 72 hour time-point) was “significantly increased”, the “DCK mRNA and protein expression” value ([6]; 72 hour time-point) was “significantly increased” and the “phosphorylation of CAD at serine 1856” value ([6]; 72 hour time-point) was “decrease phosphorylation of CAD at serine 1856”. For the same compound, the “total CAD or CTPS1 levels” value ([6]; 72 hour time-point) was “Neither pro-drug changed total CAD”, the GI50 ([7]; HAP1, parental cells, read-out: GI50 (concentration for 50% growth inhibition)) was 4 µM and the “DNMT1 protein at time-of-relapse on-therapy” value [8] was “rebounded to levels comparable to pre-treatment levels”. For the same compound, the “decrease of DNMT1 protein at time-of-response compared to pre-treatment” value [8] was about 50%, the “increase of time-to-distress over vehicle” value [9] was “about 20 days” and the “in vivo plasma half-life” value [10] was about 15 min. For the same compound, the “cell membrane Annexin-V staining (apoptosis-induction)” value ([11]; 24 hours after initiation of drug exposure) was “unaltered cell membrane Annexin-V staining”, the “morphologic changes of differentiation” value ([11]; Giemsa-stained cytospins Day 5) was “induced morphologic changes in the cells consistent with differentiation induction” and the Myc protein ([11]; Western blot Day 5) was “decreased Myc protein”. For the same compound, the p27/CDKN1B protein ([11]; Western blot Day 5) was “increased p27/CDKN1B protein”, the F1339 proliferation ([11]; decitabine 0.5 μM, 5-azacytidine 5 μM, cytarabine 0.5 μM) was “significantly decreased F1339 proliferation; also recorded: did significantly impede the SCLC cell proliferation” and the “decrease of CDA expression at relapse” value [12] was about 50%. For the same compound, the “decrease of UCK2 expression at relapse” value [12] was about 50%, the “increase of DCK expression at relapse” value [12] was about 8 fold and the “average increase of CAD expression at relapse” value [12] was about 8 fold.
For O=C1NC(O)CCN1[C@@H]1O[C@H](CO)[C@@H](O)[C@H]1O (stereo partly drawn) [THU, tetrahydrouridine], the “increase of efficacy of decitabine or 5-azacytidine by THU” value ([9]; in vivo studies of murine lung cancer) is given as about 2 fold, the myelosuppression ([9]; murine models of lung cancer) is given as “without bone marrow suppression” and the “increase of oral bioavailability of decitabine and 5-azacytidine” value ([10]; addition of THU) is given as about 10 fold. For the same compound, the “increase of plasma half-lives of decitabine and 5-azacytidine” value ([10]; addition of THU) was about 10 fold.
With Nc1ccn([C@@H]2O[C@H](CO)[C@@H](O)[C@H]2O)c(=O)n1 [cytidine] the AML cell proliferation [3] was “did not impact proliferation”.
For Cc1cn([C@H]2C[C@H](O)[C@@H](CO)O2)c(=O)[nH]c1=O [dT, deoxythymidine], the “added benefit of ribonucleotide reductase inhibitor to THU+decitabine” value [13] was “did not add further to the benefit from THU”.
Nc1ncn([C@H]2C[C@H](O)[C@@H](CO)O2)c(=O)n1 [decitabine] showed a CDA upregulation [1, 15] of about 3 fold, a UCK2 upregulation [1, 15] of about 3 fold and a GI50 [2, 16] of 12 µM. For the same compound, the GI50 [4, 16] was 0.1 µM, the myelosuppression ([14]; human, in vivo) was “grade ¾ myelosuppression” and the sustained plasma concentration ([14]; intravenous infusion, for ~72 hours) was over 40 nM. The GI50 [7, 16] was 3 µM, the “median survival (time-to-distress)” value ([13]; Dec 0.2 mpk SC Day 1 and 2 each week) was 75 days and the “median survival (time-to-distress)” value ([13]; Dec 0.2 mpk SC Day 1 and 4 each week) was 60 days. The “human CD45+ (hCD45+) AML cells in bone marrow” value ([13]; Dec 0.3 mpk SC Day 1 and 2 each week) was about 26%, the “human CD45+ (hCD45+) AML cells in bone marrow” value ([13]; Dec 0.3 mpk SC Day 1 and 4 each week) was about 63% and the “bone marrow hCD45+” value [13, 17] was about 85%. The “bone marrow murine Cd45+ (murine hematopoiesis)” value [13, 17] was about 5%, the “DNMT1-depletion in bone marrow cells” value ([13]; day 63, on-therapy, flow cytometry) was about 35% and the “median survival (time-to-distress)” value ([13]; week-to-week alternation experiment (FIG. 28)) was 111 days. For the same compound, the “decrease of DNMT1 protein at time-of-response compared to pre-treatment” value [8] was about 50%, the “increase of time-to-distress over vehicle” value [9] was “about 20 days” and the “in vivo plasma half-life” value [10] was about 15 min. The “decrease of DCK expression at relapse” value [12] was about 50%, the “increase of CDA expression at relapse” value [12] was about 3 fold and the “increase of UCK2 expression at relapse” value [12] was about 8 fold. The “average increase of CAD expression at relapse” value [12] was about 8 fold.
For Nc1ccn([C@H]2C[C@H](O)[C@@H](CO)O2)c(=O)n1 [deoxycytidine], the AML cell proliferation [3] was “did not impact proliferation”.
For NC(=O)NO [hydroxyurea], the “added benefit of ribonucleotide reductase inhibitor to THU+decitabine” value [13] was “did not add further benefit to THU+decitabine”.
